Literature values in EP0081783B2, “Renin inhibitory peptides having Phe 13 deletion” (Merck & Co., Inc., priority 1981, dated 1989).

Tested on: hog renin
Conditions: after the injection of hog renin into nephrectomized rats

pepstatin
blood pressure in vivo: reduce blood pressure
